These results are taken from patent publication US9914722B2, “Compounds for treating spinal muscular atrophy” (PTC Therapeutics Inc., priority 2012, dated 2018).

The test system of series [1] is full length SMN2 minigene mRNA containing SMN2 exon 7 (SMN2-A minigene). Briefly: SMN2 minigene mRNA splicing RT-qPCR assay in cultured cells. It is filed as cell-based, human. The settings on record: Homo sapiens, HEK293-H; HEK293H cells stably transfected with SMN2-A minigene, 24 hours, 7-point concentration curve; concentration giving 1.5-fold SMN2 full length mRNA vs vehicle; read-out: EC1.5x for production of full length SMN2 mRNA. The method, then:
SMN2 Minigene mRNA Splicing RT-qPCR Assay in Cultured Cells
The reverse transcription-quantitative PCR-based (RT-qPCR) assay is used to quantify the level of the full length SMN2 minigene mRNA containing SMN2 exon 7 in a HEK293H cell line stably transfected with said minigene and treated with a test compound.
Protocol. HEK293H cells stably transfected with the SMN2-A minigene construct described above (10,000 cells/well) are seeded in 200 μL of cell culture medium (DMEM plus 10% FBS, with 200 μg/mL hygromycin) in 96-well flat-bottom plates and the plate is immediately swirled to ensure proper dispersal of cells, forming an even monolayer of cells. Cells are allowed to attach for at least 4-6 hours. Test compounds are serially diluted 3.16-fold in 100% DMSO to generate a 7-point concentration curve. A solution of test compound (1 μL, 200× in DMSO) is added to each cell-containing well and the plate is incubated for 24 hours in a cell culture incubator (37° C., 5% CO2, 100% relative humidity). Two replicates are prepared for each test compound concentration. The cells are then lysed in Cells-To-Ct lysis buffer and the lysate is stored at −80° C.
Primer SMN Forward A (SEQ ID NO. 1) hybridizes to a nucleotide sequence in exon 7 (nucleotide 22 to nucleotide 40), primer SMN Reverse A (SEQ ID NO. 2) hybridizes to a nucleotide sequence in the coding sequence of Firefly luciferase, SMN Probe A (SEQ ID NO. 3) hybridizes to a nucleotide sequence in exon 7 (nucleotide 50 to nucleotide 54) and exon 8 (nucleotide 1 to nucleotide 21). The combination of these three oligonucleotides detects only SMN1 or SMN2 minigenes (RT-qPCR) and will not detect endogenous SMN1 or SMN2 genes.
The SMN forward and reverse primers are used at final concentrations of 0.4 μM. The SMN probe is used at a final concentration of 0.15 μM. The GAPDH primers are used at final concentrations of 0.2 μM and the probe at 0.15 μM.
The SMN2-minigene GAPDH mix (15 μL total volume) is prepared by combining 7.5 μL of 2×RT-PCR buffer, 0.4 μL of 25×RT-PCR enzyme mix, 0.75 μL of 20×GAPDH primer-probe mix, 4.0075 μL of water, 2 μL of 10-fold diluted cell lysate, 0.06 μL of 100 μM SMN forward primer, 0.06 μL of 100 μM SMN reverse primer, and 0.225 μL of 100 μM SMN probe.
PCR is carried out at the following temperatures for the indicated time: Step 1: 48° C. (15 min); Step 2: 95° C. (10 min); Step 3: 95° C. (15 sec); Step 4: 60° C. (1 min); then repeat Steps 3 and 4 for a total of 40 cycles.
Each reaction mixture contains both SMN2-A minigene and GAPDH primers/probe sets (multiplex design), allowing simultaneous measurement of the levels of two transcripts.
Two SMN spliced products are generated from the SMN2 minigene. The first spliced product containing exon 7, corresponding to SMN2 full length mRNA, is referred to herein using the term “SMN2 minigene FL.” The second spliced product lacking exon 7 is referred to herein using the term “SMN2 minigene Δ7.”
The increase of SMN2 minigene FL mRNA relative to that in cells treated with vehicle control is determined from real-time PCR data using a modified ΔΔCt method (as described in Livak and Schmittgen, Methods, 2001, 25:402-8). The amplification efficiency (E) is calculated from the slope of the amplification curve for SMN2 minigene FL and GAPDH mRNA individually. The abundance of SMN2 minigene FL and GAPDH mRNA are then calculated as (1+E)^−Ct, where Ct is the threshold value for each amplicon. The abundance of SMN2 minigene FL is normalized to GAPDH abundance. The normalized SMN2 minigene FL abundance from test compound-treated samples is then divided by normalized SMN2 minigene FL abundance from vehicle-treated cells to determine the level of SMN2 FL mRNA relative to vehicle control. […]
In general terms: Real-time PCR tracks product formation cycle by cycle.

Another series deals with Smn protein. The series can be described thus: Smn protein assay (Smn HTRF) in cultured cells. The series is classed as cell-based, human. Conditions: Homo sapiens, Fibroblast, GM03813 SMA Type 1 patient fibroblasts, 48 hours, HTRF; for maximal fold induction: 7-point concentration data, relative to vehicle, read-out: maximum fold (Fold) increase of Smn protein; for EC (1.5-fold): concentration producing 1.5 times Smn protein vs DMSO vehicle, read-out: EC1.5x for Smn protein expression. As to the method:
Smn Protein Assay in Cultured Cells
The Smn HTRF (homogeneous time resolved fluorescence) assay is used to quantify the level of Smn protein in SMA patient fibroblast cells treated with test compounds.
Protocol. Cells are thawed and cultured in DMEM-10% FBS for 72 hours. Cells are trypsinized, counted and re-suspended to a concentration of 25,000 cells/mL in DMEM-10% FBS. The cell suspension is plated at 5,000 cells per well in a 96 well microtiter plate and incubated for 3 to 5 hours. […] Test compounds are serially diluted 3.16-fold in 100% DMSO to generate a 7-point concentration curve. 1 μL of test compound solution is transferred to cell-containing wells and cells are incubated for 48 hours in a cell culture incubator (37° C., 5% CO2, 100% relateive humidity). Triplicate samples are set up for each test compound concentration. After 48 hours, the supernatant is removed from the wells and 25 μL of the RIPA lysis buffer, containing protease inhibitors, is added to the wells and incubated with shaking at room temperature for 1 hour. 25 μL of the diluent is added and then 35 μL of the resulting lysate is transferred to a 384-well plate, where each well contains 5 μL of the antibody solution (1:100 dilution of anti-SMN d2 and anti-SMN kryptate in SMN reconstitution buffer). The plate is centrifuged for 1 minute to bring the solution to the bottom of the wells, then incubated overnight at room temperature. Fluorescence for each well of the plate at 665 nm and 620 nm is measured on an EnVision multilabel plate reader (Perkin-Elmer).
The normalized fluorescence signal is calculated for each sample, Blank and vehicle control well by dividing the signal at 665 nm by the signal at 620 nm. Normalizing the signal accounts for possible fluorescence quenching due to the matrix effect of the lysate. The AF value (a measurement of Smn protein abundance as a percent value) for each sample well is calculated by subtracting the normalized average fluorescence for the Blank control wells from the normalized fluorescence for each sample well, then dividing this difference by the normalized average fluorescence for the Blank control wells and multiplying the resulting value by 100. The ΔF value for each sample well represents the Smn protein abundance from test compound-treated samples. The ΔF value for each sample well is divided by the ΔF value for the vehicle control wells to calculate the fold increase in Smn protein abundance relative to the vehicle control.
For compounds of Formula (I) or a form thereof disclosed herein, Table 9 provides the EC1.5x for Smn protein expression that was obtained from the 7-point concentration data generated for each test compound according to the procedure of Biological Example 7. The term “EC1.5x for Smn protein expression” is defined as that concentration of test compound that is effective in producing 1.5 times the amount of Smn protein in an SMA patient fibroblast cell compared to the amount produced from the DMSO vehicle control. An EC1.5x for Smn protein expression between >3 μM and ≦10 μM is indicated by one star (*), an EC1.5x between >1 μM and ≦3 μM is indicated by two stars (**), an EC1.5x between >0.3 μM and ≦1 μM is indicated by three stars (***) and an EC1.5x≦0.3 μM is indicated by four stars (****).
For compounds of Formula (I) or a form thereof disclosed herein, Table 10 provides the maximum fold (Fold) increase of Smn protein that was obtained from the 7-point concentration data generated for each test compound according to the procedure of Biological Example 7. A maximum fold increase ≦1.2 is indicated by one star (*), a fold increase between >1.2 and ≦1.35 is indicated by two stars (**), a fold increase between >1.35 and ≦1.5 is indicated by three stars (***), a fold increase between >1.5 and ≦1.65 is indicated by four stars (****) and a fold increase >1.65 is indicated by five stars (*****).

One may read the melting point as the temperature of the solid-liquid transition. For the compound `O=c1cc(-c2cccnc2)oc2ccc(N3CCNCC3)cc12` [Cpd 1, 6-(piperazin-1-yl)-2-(pyridin-3-yl)-4H-chromen-4-one], the melting point lay in the range of 177 to 180 °C. In addition, the EC (1.5-fold) in series [1] was 0.3 to 1 µM. For the same compound, the maximal fold induction in the series on Smn protein was in the range of 1.35 to 1.5.

Consider `CN1CCN(c2ccc3oc(-c4cccnc4)cc(=O)c3c2)CC1` [Cpd 2, 6-(4-methylpiperazin-1-yl)-2-(pyridin-3-yl)-4H-chromen-4-one], for which the EC (1.5-fold) in series [1] was 3 to 30 µM. Moreover, the maximal fold induction in the series on Smn protein lay in the range of 1.2 to 1.35.

Consider `CCN1CCN(c2ccc3oc(-c4cccnc4)cc(=O)c3c2)CC1` [Cpd 3, 6-(4-ethylpiperazin-1-yl)-2-(pyridin-3-yl)-4H-chromen-4-one], for which the melting point lay in the range of 140 to 142 °C. Further, the EC (1.5-fold) in series [1] is 3 to 30 µM. Besides, in the series with Smn protein, the maximal fold induction is at most 1.2.

In turn, `CC(C)N1CCN(c2ccc3oc(-c4cccnc4)cc(=O)c3c2)CC1` [Cpd 4, 6-[4-(propan-2-yl)piperazin-1-yl]-2-(pyridin-3-yl)-4H-chromen-4-one] had a melting point of 148 to 150 °C. In series [1], the EC (1.5-fold) lay in the range of 3 to 30 µM. Further, the maximal fold induction with Smn protein is at most 1.2.

The compound `CN1CCCN(c2ccc3oc(-c4cccnc4)cc(=O)c3c2)CC1` [Cpd 5, 6-(4-methyl-1,4-diazepan-1-yl)-2-(pyridin-3-yl)-4H-chromen-4-one] yielded a melting point of 136 to 138 °C. Moreover, the EC (1.5-fold) in series [1] lay in the range of 3 to 30 µM. The maximal fold induction with Smn protein was 1.2 to 1.35.

`O=c1cc(-c2cccnc2)oc2ccc(N3CCCNCC3)cc12` [Cpd 6, 6-(1,4-diazepan-1-yl)-2-(pyridin-3-yl)-4H-chromen-4-one]: the melting point was 162 to 164 °C. The EC (1.5-fold) in series [1] lay within 3 to 30 µM. Also, the maximal fold induction in the series with Smn protein was at most 1.2.

Compound `O=c1cc(-c2ccccn2)oc2ccc(N3CCNCC3)cc12` [Cpd 7, 6-(piperazin-1-yl)-2-(pyridin-2-yl)-4H-chromen-4-one] showed a melting point of 170 to 172 °C. In addition, in series [1], the EC (1.5-fold) lay in the range of 0.3 to 1 µM. For the same compound, in the series on Smn protein, the maximal fold induction was in the range of 1.5 to 1.65 and the EC (1.5-fold) is 3 to 10 µM.

In turn, `O=c1cc(-c2cn3ccccc3n2)oc2ccc(N3CCNCC3)cc12` [Cpd 8, 2-(imidazo[1,2-a]pyridin-2-yl)-6-(piperazin-1-yl)-4H-chromen-4-one] yielded a melting point of 207 to 211 °C. In addition, in series [1], the EC (1.5-fold) was 0.3 to 1 µM. Moreover, in the series with Smn protein, the maximal fold induction was 1.5 to 1.65 and the EC (1.5-fold) lay in the range of 3 to 10 µM.

`C[C@@H]1CN(c2ccc3oc(-c4cccnc4)cc(=O)c3c2)C[C@H](C)N1` [Cpd 9, 6-[(3R,5S)-3,5-dimethylpiperazin-1-yl]-2-(pyridin-3-yl)-4H-chromen-4-one]: the melting point was in the range of 148 to 150 °C. Further, the EC (1.5-fold) in series [1] is 1 to 3 µM. In addition, in the series on Smn protein, the maximal fold induction fell in the range of 1.5 to 1.65 and the EC (1.5-fold) is 3 to 10 µM.

Compound `CC1(C)CN(c2ccc3oc(-c4cccnc4)cc(=O)c3c2)CCN1` [Cpd 10, 6-(3,3-dimethylpiperazin-1-yl)-2-(pyridin-3-yl)-4H-chromen-4-one] had a melting point of 140 to 142 °C. In series [1], the EC (1.5-fold) lay within 1 to 3 µM. The maximal fold induction with Smn protein was in the range of 1.35 to 1.5.

The compound `C[C@@H]1CN(c2ccc3oc(-c4cccnc4)cc(=O)c3c2)CCN1` [Cpd 11, 6-[(3R)-3-methylpiperazin-1-yl]-2-(pyridin-3-yl)-4H-chromen-4-one] had a melting point of 148 to 150 °C. Besides, the EC (1.5-fold) in series [1] lay within 0.3 to 1 µM. Further, in the series on Smn protein, the maximal fold induction lay within 1.35 to 1.5 and the EC (1.5-fold) was in the range of 3 to 10 µM.

Regarding `CN1CCN(c2ccc3oc(-c4ccccn4)cc(=O)c3c2)CC1` [Cpd 12, 6-(4-methylpiperazin-1-yl)-2-(pyridin-2-yl)-4H-chromen-4-one], the melting point lay in the range of 150 to 152 °C. The EC (1.5-fold) in series [1] is 3 to 30 µM. Also, in the series on Smn protein, the maximal fold induction is at most 1.2.

For `CCOc1ccc(-c2cc(=O)c3cc(N4C[C@@H](C)N[C@@H](C)C4)ccc3o2)cc1` [Cpd 43, 6-[(3R,5S)-3,5-dimethylpiperazin-1-yl]-2-(4-ethoxyphenyl)-4H-chromen-4-one], the EC (1.5-fold) in series [1] lay within 1 to 3 µM. Also, in the series on Smn protein, the maximal fold induction is at most 1.2.

On to `Cc1cn2cc(-c3cc(=O)c4cc(N5CCNCC5)ccc4o3)nc2cn1` [Cpd 72, 2-(6-methylimidazo[1,2-a]pyrazin-2-yl)-6-(piperazin-1-yl)-4H-chromen-4-one], for which the figures for the EC (1.5-fold) (in series [1]; in the series with Smn protein) were at most 0.1 µM and at most 0.3 µM, respectively. The maximal fold induction in the series with Smn protein was over 1.65.
